Here are results for two compounds from patent publication EP0533925A1, “OPTICAL ISOMER OF R-FORM OF DIPHENYL ETHER DERIVATIVE AND HERBICIDE CONTAINING THE SAME AS ACTIVE INGREDIENT” (TEIJIN LIMITED, priority 1990, dated 1991).

Holding throughout (type): in vivo
Common to all, as to set-up: key: 0 means the state where the plants are as sound as before the application of the active compound; 1, 2, 3 and 4 mean varying degrees of the enfeebled state of the plants between 0 and 5; 1, 2, 3 and 4 mean varying degrees of the enfeebled state of the plants between 0 and 5; 1, 2, 3 and 4 mean varying degrees of the enfeebled state of the plants between 0 and 5; 1, 2, 3 and 4 mean varying degrees of the enfeebled state of the plants between 0 and 5; 5 is the state where the plants are withered or killed by application of the active compound

For assay [1], the system named is Xanthium strumarium. Briefly: Herbicidal activity, foliar application of single compounds (Test Examples 1 to 5). The note with it: 3 weeks after application. The method, then:
(§1) In these examples, all parts means parts by weight, unless otherwise noted. The herbicidal activity was evaluated on a scale of 6 degrees. In other words, 0 means the state where the plants are as sound as before the application of the active compound, while 5 is the state where the plants are withered or killed by application of the active compound, and 1, 2, 3 and 4 mean varying degrees of the enfeebled state of the plants between 0 and 5.
(§2) The diphenyl ethers shown in Table 2 were added to 5000 parts of a mixture of acetone and water (1 : 1 by volume), and 2.6 parts of a nonionic surfactant (Sorpol 2680, tradename) was added to form a solution, so that the ether becomes the prescribed amount in each solution.
(§3) Seeds of plants were sown in the soil, cultivated for 2 to 3 weeks, after germination, then the plants were used for the tests.
(§4) The prepared solution was applied to these plants at the prescribed rate of application in total, then the plants were continuously cultivated for 3 weeks without applying the solution.
(§5) The alphabetical symbols in Tables 2 and 3 represent the following plants, respectively: a: Digitaria adscendens b: Setaria viridis c: Sorghum halepense d: Chenopodium album var. centrorubrum e: Amaranthus mangostanus f: Astragalus sinicus g: Abutilon theophrosti h: Solanum nigrum i: Xanthium strumarium j: Soybean; Glycine max k: Corn; Zea mays Table 2

For another assay, the system named is Setaria viridis. The description is as above. The conditions noted are these: 3 weeks after application. The method, then:
as §1, §2, §3, §4, §5

Assay [2] deals with Sorghum halepense. The description is as above. The note with it: 3 weeks after application. As to the method: as §1, §2, §3, §4, §5
Another assay concerns Solanum nigrum. Briefly: Herbicidal activity, spray of diphenyl ether with N-phosphonomethylglycine derivative (Test Examples 6 to 10). The conditions noted are these: Application 0.375 Kg/ha (117) alone. As to the method: as §1
(§6) In each run, the diphenyl ether derivatives and the N-phosphonomethylglycine derivatives shown in Table 3 (in the indicated mixing ratios) was dissolved in 16 parts by volume of a mixture of water and acetone (1 : 1 by volume; containing 0.05 % of a nonionic surfactant, Sorpol-2680) in the indicated mixing ratio, respectively, to prepare spray solutions.
(§7) The plants tested were grown in vinyl resin pots (diameter 10 cm) filled with soil in a green house for 2 to 3 weeks after germination from seeds or tubers.
(§8) The spray solution was applied to the plants so that the total volume sprayed became 4 cc/100 cm², and the herbicidal activity was examined.
as §5

Assay [3] deals with Xanthium strumarium. The assay is described as above. The conditions noted are these: Application 0.375 Kg/ha (117) alone. As to the method: as §1, §6, §7, §8, §5
Assay [4] relates to Sorghum halepense. The description is as above. The note with it: Application 0.375 Kg/ha (117) alone. As to the method:
as §1, §6, §7, §8, §5

The subject of the next assay is Abutilon theophrosti. The assay is described as above. The note with it: Application 0.375 Kg/ha (117) alone. As to the method:
as §1, §6, §7, §8, §5

The subject of assay [5] is Chenopodium album var. centrorubrum. Described as above. The conditions noted are these: Application 0.375 Kg/ha (117) alone. The method, then:
as §1, §6, §7, §8, §5

[6] abbreviates: Rate of Application 0.016 kg/ha.
Where [7] appears, read: Rate of Application 0.031 kg/ha.

Structures can show the parent of a compound that is named as a salt.

On to `COC(=O)C(C)Oc1cc(Oc2ccc(C(F)(F)F)cc2Cl)ccc1C#N` (stereo not drawn) [Compound (1), Methyl α-[2-cyano-5-(2-chloro-4-trifluoromethylphenoxy)phenoxy]propionate], for which the “herbicidal activity, Plants i” value with Xanthium strumarium [1] (setting [6]) and in the assay on Xanthium strumarium [1] (setting [7]) was 5 each time. In addition, the “herbicidal activity, Plants b” value in the assay on Setaria viridis (setting [6]) is reported as 3; in the assay with Setaria viridis (setting [7]), 4. The “herbicidal activity, Plants c” value in the assay with Sorghum halepense [2] (setting [6]) and in the assay with Sorghum halepense [2] (setting [7]) was 5 throughout.

Turning to `O=C(O)CNCP(=O)(O)O` [Compound (117), N-phosphonomethylglycine isopropylammonium salt], the “herbicidal activity, Plants h” value in the assay on Solanum nigrum (3 days after treatment), in the assay with Solanum nigrum (7 days after treatment) and with Solanum nigrum (14 days after treatment) was 0 throughout. Also, the “herbicidal activity, Plants i” value with Xanthium strumarium [3] (3 days after treatment) is given as 0; in the assay with Xanthium strumarium [3] (7 days after treatment), 0; in the assay on Xanthium strumarium [3] (14 days after treatment), 1. For the same compound, the “herbicidal activity, Plants c” value with Sorghum halepense [4] (3 days after treatment) was determined as 0; in the assay on Sorghum halepense [4] (7 days after treatment) it was 0; with Sorghum halepense [4] (14 days after treatment), 1. Further, the entries for the “herbicidal activity, Plants g” value in the assay with Abutilon theophrosti (3 days after treatment), with Abutilon theophrosti (7 days after treatment) and in the assay with Abutilon theophrosti (14 days after treatment) were 0, 1 and 1, respectively. The “herbicidal activity, Plants d” value is given as 0 in assay [5] (3 days after treatment), 0 in assay [5] (7 days after treatment) and 1 in assay [5] (14 days after treatment).
